This assay deals with GST-Syk Full Protein (human) (Homo sapiens, UniProt P43405). The assay can be described thus: Syk kinase inhibition test (HTRF method). Type of assay: biochemical. The procedure: Syk Kinase Inhibition Test (HTRF Method)
After the compounds were serially diluted with dimethylsulfoxide (DMSO), 10 μL of those 10-fold diluted with kinase buffer (20 mM HEPES pH 7.0, 10 mM MgCl2, 50 mM NaCl, 1 mM 2-ME, 0.05% BSA) was added to opti-plate HTRF-96 (Packard) (final DMSO concentration: 2%). 20 μL of a substrate solution (kinase buffer as mentioned above containing Syk Specific-Peptide Substrate Biot-EDPDYEWPSA-NH2 (Peptide Laboratory) 625 nM, 250 μM ATP (SIGMA) was added (final substrate concentration 250 nM, 100 μM ATP), and further 20 μL of an enzyme solution (kinase buffer as mentioned above containing GST-Syk Full Protein (human) 16 nM) (final concentration 6.4 nM) was added and the mixture was immediately stirred with a plate shaker to start enzyme reaction. After reacted at room temperature (20 to 25° C.) for 30 minutes, the enzyme reaction was terminated by adding 100 μL/well of a buffer for terminating and detecting the reaction (30 mM HEPES pH 7.0, 150 mM KF, 0.15% BSA, 0.075% Tween-20, 75 mM EDTA) containing HTRF reagent (5 μg/ml XL665-Streptavidin (CIS bio), 170 ng/ml Eu(K)-anti-PhosphoTyrosin, PT-66 (CIS bio)) (final concentration 20 mM HEPES pH 7.0, 100 mM KF, 0.1% BSA, 0.05% Tween-20, 50 mM EDTA). After allowed to stand still at room temperature for 1 hour, inhibitory effect of a compound against Syk kinase enzymatic activity was evaluated by measuring 665/620 fluorescence ratio to excitation light at 337 nm by ARVO (Wallac).

[1] abbreviates: Tables 1-x, compounds A, read-out: sykHTRF ave IC50.
The mark [2] stands for this setting: Tables 2-x, thiophene compounds B, read-out: sykHTRK ave IC50.
Setting [3] is: HTRF, 100 μM ATP, 30 min room temperature, average, read-out: sykHTRF ave IC50.

Counter-ions that a name gives are not always drawn. Like-named read-outs stand apart in the source and are kept apart here. Where only a bound is given, the exact number is not on record here.

As for `Cc1ccnc(Nc2cccc(-c3cnc(N(CC(N)=O)C4CCCCC4)s3)n2)c1` [Compound A-669], the IC50 under setting [1] was in the range of 100 to 1000 nM.

As to `O=C(O)CC1CCN(c2ncc(-c3cccc(Nc4ncccn4)n3)s2)CC1` [Compound A-679], under setting [1], the IC50 fell in the range of 100 to 1000 nM.

On to `CNC(=O)C1CCN(Cc2ncc(-c3cccc(Nc4cc(C)ccn4)n3)s2)CC1` [Compound A-686], for which the IC50 under setting [1] lay in the range of 100 to 1000 nM.

Turning to `O=C(O)CC1CC2CCC(C1)N2c1ncc(-c2cccc(Nc3cc(C(F)(F)F)ccn3)n2)s1` (centres unmarked) [Compound A-648, (8-{5-[6-(4-trifluoromethylpyridin-2-ylamino)pyridin-2-yl]thiazol-2-yl}-8-azabicyclo[3.2.1]oct-3-yl)acetic acid], under setting [1], the IC50 was below 100 nM.

For the compound `Cc1ccnc(Nc2cccc(-c3cnc(N4CCC(C(=O)N5CCOCC5)CC4)s3)n2)c1` [Compound A-454], the IC50 under setting [1] was in the range of 100 to 1000 nM.

As to `Cc1ccnc(Nc2cccc(-c3ccc(C(C)OCc4ccc(C(=O)O)cc4)s3)n2)c1` (centres unmarked) [Compound B-108], the IC50 under setting [2] is 100 to 1000 nM.

As to `CNC(=O)[C@@H]1CCCN1Cc1ncc(-c2cccc(Nc3cc(C)ccn3)n2)s1` [Compound A-666], the IC50 under setting [1] lay in the range of 100 to 1000 nM.

For the compound `CN(CCO)c1ncc(-c2cccc(Nc3ccccn3)n2)s1` [Compound A-706], the IC50 under setting [1] lay within 100 to 1000 nM.

With `Cc1ccnc(Nc2cccc(-c3ccc(CN4CCc5cc(C(=O)O)ccc5C4)s3)n2)c1` [Compound B-107], under setting [2], the IC50 lay in the range of 100 to 1000 nM.

For the compound `CC(C)(O)c1ccnc(Nc2cccc(-c3cnc(N4CCC(CC(=O)O)CC4)s3)n2)c1` [Compound A-717, [1-(5-{6-[4-(1-hydroxy-1-methylethyl)pyridin-2-ylamino]pyridin-2-yl}thiazol-2-yl)piperidin-4-yl]acetic acid dihydrochloride], the IC50 under setting [1] was below 100 nM.

As for `Cc1ccnc(Nc2cccc(-c3ccc(C(=O)N(C)Cc4ccc(C(=O)O)cc4)s3)n2)c1` [Compound B-122], the IC50 under setting [2] lay within 100 to 1000 nM.

For the compound `Cc1ccnc(Nc2cccc(-c3cnc(N(C)C4CCC(C(=O)NCCO)CC4)s3)n2)c1` (centres unmarked) [Compound A-493, N-(2-hydroxyethyl)-4(N′-methyl-N′-{5-[6-(4-methylpyridin-2-ylamino)pyridin-2-yl]thiazol-2-yl}amino)cyclohexanecarboxamide], the IC50 under setting [1] was below 100 nM.

On to `CN(C[C@H]1CC[C@H](C(=O)O)CC1)c1ncc(-c2cccc(Nc3ccccn3)n2)s1` [Compound A-699, trans-4-[(N-methyl-N-{5-[6-(pyridin-2-ylamino)pyridin-2-yl]thiazol-2-yl}amino)methyl]cyclohexanecarboxylic acid dihydrochloride], for which the IC50 under setting [1] was below 100 nM.

In the case of `Cc1ccnc(Nc2cccc(-c3cnc(N4CCC(C(=O)N5CCNC(=O)C5)CC4)s3)n2)c1` [Compound A-453, 4-(1-{5-[6-(4-methylpyridin-2-ylamino)pyridin-2-yl]thiazol-2-yl}piperidine-4-carbonyl)piperazin-2-one], the IC50 under setting [1] was below 100 nM.

Take `Cc1ccnc(Nc2cccc(-c3cnc(N(C)C(C(=O)NCC(F)(F)F)C(C)C)s3)n2)c1` (centres unmarked) [Compound A-676]: the IC50 under setting [1] was in the range of 100 to 1000 nM.

Regarding `CN(c1ncc(-c2cccc(Nc3cc(C(F)(F)F)ccn3)n2)s1)C(C)(C)c1ccc(C(=O)O)cc1` [Compound A-654, 4-[1-methyl-1-(N-methyl-N-{5-[6-(4-trifluoromethylpyridin-2-ylamino)pyridin-2-yl]thiazol-2-yl}amino)ethyl]benzoic acid], the IC50 under setting [1] was below 100 nM.

Regarding `CC(C)(C)c1ccnc(Nc2cccc(-c3cnc(N4CCC(CC(=O)O)CC4)s3)n2)c1` [Compound A-710, (1-{5-[6-(4-tert-butylpyridin-2-ylamino)pyridin-2-yl]thiazol-2-yl}piperidin-4-yl)acetic acid dihydrochloride], the IC50 under setting [1] was below 100 nM.

For the compound `O=C(O)C1CCN(c2ncc(-c3cccc(Nc4ccccn4)n3)s2)CC1` [Compound A-683], the IC50 under setting [1] lay in the range of 100 to 1000 nM.

As for `Cc1ccnc(Nc2cccc(-c3ccc(C(=O)NCc4ccc(C(=O)O)cc4)s3)n2)c1` [Compound B-112], the IC50 under setting [2] was in the range of 100 to 1000 nM.

Turning to `CC(=O)NCCNC(=O)C1CCC(N(C)c2ncc(-c3cccc(Nc4cc(C)ccn4)n3)s2)CC1` (centres unmarked) [Compound A-494, N-(2-acetylaminoethyl)-4-(N′-methyl-N′-{5-[6-(4-methylpyridin-2-ylamino)pyridin-2-yl]thiazol-2-yl}amino)cyclohexanecarboxamide], the IC50 under setting [1] is below 100 nM.

As to `Cc1ccnc(Nc2cccc(-c3cnc(N(C)CCCCC(=O)O)s3)n2)c1` [Compound A-632, 5-(N-methyl-N-{5-[6-(4-methylpyridin-2-ylamino)pyridin-2-yl]thiazol-2-yl}amino)pentanoic acid], under setting [1], the IC50 is below 100 nM.

Regarding `CNC(=O)c1nc([C@H](C)NC(C)=O)sc1-c1cccc(Nc2cc(C)ccn2)n1` [Compound A-118], the IC50 under setting [3] is above 1000 nM.

Regarding `Cc1ccnc(Nc2cccc(-c3cnc(CCc4ccc(OCc5ccccc5)cc4)s3)n2)c1` [Compound A-133], the IC50 under setting [3] is above 1000 nM.

`CC(=O)c1ccc(-c2cccc(N(C)c3cc(C)ccn3)n2)s1` [Compound B-90]: under setting [2], the IC50 was above 1000 nM.

For `Cc1ccnc(Nc2cccc(-c3cnc(N(C)C4CCN(C(=O)C5CC5)CC4)s3)n2)c1` [Compound A-512], under setting [1], the half-inhibitory concentration (IC50) fell in the range of 100 to 1000 nM.

Regarding `Cc1ccnc(Nc2cccc(-c3cnc(N(C)C4CCC(C(=O)N[C@H]5CC[C@H](O)CC5)CC4)s3)n2)c1` (some centres unmarked) [Compound A-496], the IC50 under setting [1] fell in the range of 100 to 1000 nM.

As for `Cc1ccnc(Nc2cccc(-c3cnc(N4C[C@H](O)C[C@H]4C(=O)O)s3)n2)c1` [Compound A-569], the IC50 under setting [1] was 100 to 1000 nM.

On to `Cc1ccnc(Nc2cccc(-c3cnc(CN4CCc5c(cccc5C(=O)O)C4)s3)n2)c1` [Compound A-608], for which the IC50 under setting [1] lay in the range of 100 to 1000 nM.

For the compound `CC(=O)N(Cc1ccc(-c2cccc(Nc3cc(C)ccn3)n2)s1)C[C@H]1CC[C@H](C(=O)O)CC1` [Compound B-120, trans-4-[(N-acetyl-N-{5-[6-(4-methylpyridin-2-ylamino)pyridin-2-yl]thiophen-2-ylmethyl}amino)methyl]cyclohexanecarboxylic acid], under setting [2], the half-inhibitory concentration (IC50) was below 100 nM.

As for `Cc1cccnc1Nc1cccc(-c2cnc(N3CCC(CC(=O)O)CC3)s2)n1` [Compound A-630], the IC50 under setting [1] was in the range of 100 to 1000 nM.

For the compound `CN(Cc1ccc(CC(=O)O)cc1)c1ncc(-c2cccc(Nc3cc(C(F)(F)F)ccn3)n2)s1` [Compound A-651, {4-[(N-methyl-N-{5-[6-(4-trifluoromethylpyridin-2-ylamino)pyridin-2-yl]thiazol-2-yl}amino)methyl]phenyl}acetic acid], the IC50 under setting [1] was below 100 nM.

As to `Cc1ccnc(Nc2cccc(-c3cnc([C@@H](N)CCCCN)s3)n2)c1` [Compound A-63], the IC50 under setting [3] fell in the range of 100 to 1000 nM.

Take `Cc1ccnc(Nc2cccc(-c3cnc(CN(C)C(C)(C)C(N)=O)s3)n2)c1` [Compound A-720, 2-methyl-2-(N-methyl-N-{5-[6-(4-methylpyridin-2-ylamino)pyridin-2-yl]thiazol-2-ylmethyl}amino)propionamide]: under setting [1], the IC50 is below 100 nM.

On to `Cc1ccnc(Nc2cccc(-c3cnc(N(C)C4CCC(C(=O)N5CCC(O)CC5)CC4)s3)n2)c1` (centres unmarked) [Compound A-495], for which the IC50 under setting [1] was 100 to 1000 nM.

On to `Cc1ccnc(Nc2cccc(-c3cnc(N(C)Cc4ccc(OCc5ccccc5)cc4)s3)n2)c1` [Compound A-462], for which the IC50 under setting [1] was 100 to 1000 nM.

`Cc1ccnc(Nc2cccc(-c3cnc(CN(C)CC(=O)NCC(C)(C)C)s3)n2)c1` [Compound A-689]: under setting [1], the IC50 was in the range of 100 to 1000 nM.

Regarding `COC(=O)N(CCC(=O)O)Cc1ncc(-c2cccc(Nc3cc(C)ccn3)n2)s1` [Compound A-584], the IC50 under setting [1] fell in the range of 100 to 1000 nM.

As to `CC(=O)N[C@@H](C)c1nc(C(=O)O)c(-c2cccc(Nc3cc(C)ccn3)n2)s1` [Compound A-109], the IC50 under setting [3] is above 1000 nM.

For the compound `Cc1ccnc(Nc2cccc(-c3cnc(CN4CCC(C(N)=O)CC4)s3)n2)c1` [Compound A-685, 1-{5-[6-(4-methylpyridin-2-ylamino)pyridin-2-yl]thiazol-2-ylmethyl}piperidine-4-carboxamide], the IC50 under setting [1] is below 100 nM.

`CNC(=O)C(C(C)C)N(C)c1ncc(-c2cccc(Nc3cc(C)ccn3)n2)s1` (centres unmarked) [Compound A-674]: under setting [1], the IC50 lay within 100 to 1000 nM.

Consider `Cc1ccnc(Nc2cccc(-c3cnc(CN4CCC[C@H]4C(=O)N(C)C)s3)n2)c1` [Compound A-664], for which, under setting [1], the IC50 was in the range of 100 to 1000 nM.

As to `COC(=O)NCCN(c1ncc(-c2cccc(Nc3cc(C)ccn3)n2)s1)C1CCN(C(C)=O)CC1` [Compound A-522], the IC50 under setting [1] was 100 to 1000 nM.

With `Cc1ccnc(Nc2cccc(-c3cnc(N(C)c4ccc(CCC(=O)O)cc4)s3)n2)c1` [Compound A-639, 3-[4-(N-methyl-N-{5-[6-(4-methylpyridin-2-ylamino)pyridin-2-yl]thiazol-2-yl}amino)phenyl]propionic acid], the IC50 under setting [1] is below 100 nM.

Consider `Cc1ccnc(Nc2cccc(-c3cnc(NCCN4CCOCC4)s3)n2)c1` [Compound A-695, N-{5-[6-(4-methylpyridin-2-ylamino)pyridin-2-yl]thiazol-2-yl}-N-(2-morpholin-4-ylethyl)amine], for which, under setting [1], the IC50 was below 100 nM.

As usually defined, the IC50 is the concentration needed to halve the response being measured.

These data come from US7803801B2, “Aminopyridine compounds having Syk inhibitory activity” (Japan Tobacco, Inc., priority 2005, dated 2010).
